We go through six molecules from US20230233569A1 (Revolution Medicines, Inc., priority 2020, published 2023).

For one test, the system named is NCI-H358 (K-Ras G12C). Put plainly: CellTiter-Glo cell viability assay, 5-day treatment. Format: cell-based. To be noted: Homo sapiens, NCI-H358, 120 h, 5-day treatment; read-out: H358 Cell Viability assay data (K-Ras G12C, IC50). Summed up:
(§1)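 Viability is read as luminescence on day 5 after direct compound addition to plated cells, following about 30 minutes' room-temperature equilibration. Each signal is scaled to mean DMSO as 100%.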
(Cellular ATP, detected with luciferase, serves as a proxy for viable cell number.)

Another test relates to Capan-1 (K-Ras G12V). Described as above. Format: cell-based. To be noted: Homo sapiens, CAPAN-1, 120 h, 5-day treatment; read-out: Capan-1 Cell Viability assay data (K-Ras G12V, IC50). The method, boiled down: as §1
In a further test the target is KRAS G12S (Homo sapiens, UniProt P01116+P62937, G12S). Put plainly: Disruption of BRAF RBD interaction with Ras (FRET / MOA assay, with Cyclophilin A). Format: biochemical. To be noted: read-out: KRAS G12S FRET data, IC50. Summed up: (§2)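 Measured via TR-FRET after 3 h at 25 °C with compound (30 μM top, threefold serial steps, ten concentrations) plus K-Ras, Cyclophilin A and BRAF RBD, followed by 1.5 h with anti-His europium (10 nM) and anti-GST allophycocyanin (50 nM). Signal loss versus DMSO gave IC50.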
Sequence of KRAS G12S (P01116 1-169 isoform P01116-2 G12S limits assumed): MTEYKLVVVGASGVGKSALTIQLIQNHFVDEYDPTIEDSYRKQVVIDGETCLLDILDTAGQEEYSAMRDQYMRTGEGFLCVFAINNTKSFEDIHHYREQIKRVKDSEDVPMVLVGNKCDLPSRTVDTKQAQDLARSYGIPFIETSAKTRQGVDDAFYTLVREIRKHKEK
Sequence of KRAS G12S (P62937 whole entry): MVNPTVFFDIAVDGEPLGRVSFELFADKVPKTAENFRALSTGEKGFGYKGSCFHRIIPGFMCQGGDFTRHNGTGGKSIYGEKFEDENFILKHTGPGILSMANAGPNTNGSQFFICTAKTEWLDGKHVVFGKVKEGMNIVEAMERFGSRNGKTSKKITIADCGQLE

A further test deals with KRAS G12C (Homo sapiens, UniProt P01116+P62937, G12C). Described as above. Format: biochemical. The following applies: read-out: KRAS G12C FRET data, IC50. The method, boiled down: as §2
Sequence of KRAS G12C (P01116 1-169 isoform P01116-2 G12C): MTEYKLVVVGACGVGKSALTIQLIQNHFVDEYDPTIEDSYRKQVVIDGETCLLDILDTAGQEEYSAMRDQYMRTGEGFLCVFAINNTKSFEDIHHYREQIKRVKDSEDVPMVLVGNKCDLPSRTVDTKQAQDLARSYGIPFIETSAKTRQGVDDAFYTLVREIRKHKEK
Sequence of KRAS G12C (P62937 whole entry): as the sequence (P62937 whole entry) above
The next test deals with NRAS G12C (Homo sapiens, UniProt P01111+P62937, G12C). The description is as above. Format: biochemical. To be noted: NRAS G12C; read-out: NRAS G12C FRET data IC50.
Sequence of NRAS G12C (P01111 whole entry G12C): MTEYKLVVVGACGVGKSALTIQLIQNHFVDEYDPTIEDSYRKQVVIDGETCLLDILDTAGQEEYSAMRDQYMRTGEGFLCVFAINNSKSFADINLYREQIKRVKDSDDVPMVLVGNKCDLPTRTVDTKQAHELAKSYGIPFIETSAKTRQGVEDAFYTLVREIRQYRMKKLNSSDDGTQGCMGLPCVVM
Sequence of NRAS G12C (P62937 whole entry): as the sequence (P62937 whole entry) above
Another test has as its target KRAS G13D (Homo sapiens, UniProt P01116+P62937, G13D). Described as above. The following applies: KRAS G13D; read-out: KRAS G13D FRET data IC50. Format: biochemical. Summed up:
as §2

Another test has as its target KRAS G13C (Homo sapiens, UniProt P01116+P62937, G13C). Described as above. The following applies: read-out: KRAS G13C FRET data, IC50. Format: biochemical. Summed up:
as §2

Another test addresses KRAS G12V (Homo sapiens, UniProt P01116+P62937, G12V). Described as above. Format: biochemical. To be noted: KRAS G12V; read-out: KRAS G12V FRET data IC50. Summed up: as §2
The next test addresses KRAS G12D (Homo sapiens, UniProt P01116+P62937, G12D). Described as above. Format: biochemical. To be noted: read-out: KRAS G12D FRET data, IC50. The method, boiled down: as §2
For a further test, the target named is KRAS WT (Homo sapiens, UniProt P01116+P62937). The test is described as above. Format: biochemical. The following applies: KRAS WT; read-out: KRAS WT FRET data IC50. Summed up:
as §2

Several values for one entry are separate records, joined by “and”; a condition that tells them apart may be missing. Equal values may be shown once. Some results are limits rather than exact numbers.

Sequence of KRAS WT (P01116 1-169 isoform P01116-2 limits assumed): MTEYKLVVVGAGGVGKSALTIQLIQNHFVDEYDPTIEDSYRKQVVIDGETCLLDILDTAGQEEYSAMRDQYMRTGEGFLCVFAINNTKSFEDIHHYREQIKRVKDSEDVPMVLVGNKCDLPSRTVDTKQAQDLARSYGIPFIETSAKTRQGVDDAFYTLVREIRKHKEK
Sequence of KRAS WT (P62937 whole entry): as the sequence (P62937 whole entry) above
Sequence of KRAS G12D (P01116 1-169 isoform P01116-2 G12D limits assumed): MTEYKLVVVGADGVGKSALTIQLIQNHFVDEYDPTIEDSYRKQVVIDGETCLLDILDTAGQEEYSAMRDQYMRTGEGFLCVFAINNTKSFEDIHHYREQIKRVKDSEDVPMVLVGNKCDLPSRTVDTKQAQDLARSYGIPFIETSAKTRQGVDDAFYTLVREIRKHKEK
Sequence of KRAS G12D (P62937 whole entry): as the sequence (P62937 whole entry) above
Sequence of KRAS G13D (P01116 1-169 isoform P01116-2 G13D limits assumed): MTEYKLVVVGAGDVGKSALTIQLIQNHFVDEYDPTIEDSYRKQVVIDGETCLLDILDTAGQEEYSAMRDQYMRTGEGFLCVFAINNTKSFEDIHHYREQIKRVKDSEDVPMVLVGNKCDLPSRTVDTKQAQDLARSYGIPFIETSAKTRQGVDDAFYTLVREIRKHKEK
Sequence of KRAS G13D (P62937 whole entry): as the sequence (P62937 whole entry) above
Sequence of KRAS G12V (P01116 1-169 isoform P01116-2 G12V limits assumed): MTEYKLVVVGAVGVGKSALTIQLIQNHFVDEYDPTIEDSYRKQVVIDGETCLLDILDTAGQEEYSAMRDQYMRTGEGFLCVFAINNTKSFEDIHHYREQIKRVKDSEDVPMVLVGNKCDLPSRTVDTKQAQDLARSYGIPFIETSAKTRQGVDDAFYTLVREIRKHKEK
Sequence of KRAS G12V (P62937 whole entry): as the sequence (P62937 whole entry) above
Sequence of KRAS G13C (P01116 1-169 isoform P01116-2 G13C): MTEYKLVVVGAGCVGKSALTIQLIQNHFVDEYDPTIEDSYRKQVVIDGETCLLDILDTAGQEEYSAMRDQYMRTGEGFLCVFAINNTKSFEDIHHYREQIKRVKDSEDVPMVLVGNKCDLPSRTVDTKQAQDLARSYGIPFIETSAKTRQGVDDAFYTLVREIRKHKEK
Sequence of KRAS G13C (P62937 whole entry): as the sequence (P62937 whole entry) above

One may read the IC50 as the point on the concentration scale where inhibition reaches its midpoint. Consider `CCn1c(-c2cccnc2[C@H](C)OC)c2c3cc(ccc31)-c1cc(O)cc(c1)C[C@H](NC(=O)[C@H](C(C)C)N(C)C(=O)[C@H]1CCN(C(=O)OC(C)(C)C)C1)C(=O)N1CCC[C@H](N1)C(=O)OCC(C)(C)C2` [Example A233], for which the IC50 was 10 to 100 nM with NCI-H358 (K-Ras G12C); 10 to 100 nM in the test on Capan-1 (K-Ras G12V); 100 to 1000 nM at KRAS G12S; 10 to 100 nM on KRAS G12C; 10 to 100 nM on NRAS G12C; 100 to 1000 nM at KRAS G13D. The IC50 at KRAS G13C was 10 to 100 nM; on KRAS G12V, 10 to 100 nM; at KRAS G12D, 100 to 1000 nM; at KRAS WT, 100 to 1000 nM.

Turning to `CCn1c(-c2cccnc2[C@H](C)OC)c2c3cc(ccc31)-c1csc(n1)C[C@H](NC(=O)[C@H](C(C)C)N(C)C(=O)[C@H]1CCCO1)C(=O)N1CCC[C@H](N1)C(=O)OCC(C)(C)C2` [Example A238], the concentration for half-maximal inhibition (IC50) is 100 to 1000 nM in the test with NCI-H358 (K-Ras G12C); 100 to 1000 nM in the test on Capan-1 (K-Ras G12V); 1000 to 10000 nM on KRAS G12S; 1000 to 10000 nM on KRAS G12C; 1000 to 10000 nM at NRAS G12C; 1000 to 10000 nM at KRAS G13D. Also, the 50% inhibitory concentration (IC50) on KRAS G13C is 1000 to 10000 nM; at KRAS G12V, 1000 to 10000 nM; on KRAS G12D it was above 10000 nM; on KRAS WT it was 1000 to 10000 nM.

For `CCn1c(-c2cccnc2[C@H](C)OC)c2c3cc(ccc31)-c1csc(n1)C[C@H](NC(=O)[C@H](C(C)C)N(C)C(=O)[C@@H]1C[C@@H]1C)C(=O)N1CCC[C@H](N1)C(=O)OCC(C)(C)C2` [Example A239], the IC50 in the test with NCI-H358 (K-Ras G12C) lay in the range of 100 to 1000 nM; with Capan-1 (K-Ras G12V), 100 to 1000 nM; on KRAS G12S, 1000 to 10000 nM; at KRAS G12C, 1000 to 10000 nM; on NRAS G12C it was 1000 to 10000 nM; on KRAS G13D, 1000 to 10000 nM. Also, the IC50 at KRAS G13C, on KRAS G12V, on KRAS G12D and at KRAS WT was 1000 to 10000 nM each time.

With `CCn1c(-c2cccnc2[C@H](C)OC)c2c3cc(ccc31)-c1cc(O)cc(c1)C[C@H](NC(=O)[C@H](C(C)C)N(C)C(=O)[C@H]1C[C@H](O)C1)C(=O)N1CCC[C@H](N1)C(=O)OCC(C)(C)C2` [Example A241], the IC50 with NCI-H358 (K-Ras G12C) lay within 100 to 1000 nM; with Capan-1 (K-Ras G12V) it was 100 to 1000 nM; on KRAS G12S, 100 to 1000 nM; on KRAS G12C, 10 to 100 nM; at NRAS G12C, 100 to 1000 nM; at KRAS G13D, 100 to 1000 nM. Besides, the half-inhibitory concentration (IC50) on KRAS G13C was in the range of 10 to 100 nM; on KRAS G12V it was 100 to 1000 nM; on KRAS G12D, 100 to 1000 nM; at KRAS WT, 10 to 100 nM.

With `CCn1c(-c2cccnc2[C@H](C)OC)c2c3cc(ccc31)-c1cc(O)cc(c1)C[C@H](NC(=O)[C@H](C(C)C)N(C)C(=O)[C@H]1CCCNC1)C(=O)N1CCC[C@H](N1)C(=O)OCC(C)(C)C2` [Example A243], the 50% inhibitory concentration (IC50) with NCI-H358 (K-Ras G12C) is 100 to 1000 nM; with Capan-1 (K-Ras G12V), above 10000 nM; at KRAS G12S it was 10 to 100 nM; at KRAS G12C it was 10 to 100 nM; at NRAS G12C, 10 to 100 nM; at KRAS G13D it was 10 to 100 nM. The IC50 was 10 to 100 nM at KRAS G13C, 100 to 1000 nM at KRAS G12V, 10 to 100 nM on KRAS G12D and 10 to 100 nM at KRAS WT.

As for `CCN1CC(C(=O)N(C)[C@H](C(=O)N[C@H]2Cc3cc(O)cc(c3)-c3ccc4c(c3)c(c(-c3cccnc3[C@H](C)OC)n4CC)CC(C)(C)COC(=O)[C@@H]3CCCN(N3)C2=O)C(C)C)CC1=O` (stereo partly drawn) [Example A248], the IC50 with NCI-H358 (K-Ras G12C) was 10 to 100 nM; with Capan-1 (K-Ras G12V) it was 100 to 1000 nM; on KRAS G12S, 10 to 100 nM; at KRAS G12C, 10 to 100 nM; at NRAS G12C it was 10 to 100 nM; on KRAS G13D, 100 to 1000 nM and 10 to 100 nM. Also, the IC50 on KRAS G13C is 10 to 100 nM; at KRAS G12V, 100 to 1000 nM and 10 to 100 nM; on KRAS G12D, 100 to 1000 nM; at KRAS WT, 100 to 1000 nM and 10 to 100 nM.
